Data taken from patent US20250213593A1, “Use of Derivatives based on Sarsasapogenin Structure and Pharmaceutical Compositions thereof” (BEIJING PHYTOVENT PHARMACEUTICAL TECHNOLOGY CO., LTD., priority 2022, published 2025).
Where two headings read alike, the source gives them in different places.

Assays:
[1] = tested on: transgenic AD mice (C57BL/6J background); assay: Nesting behaviors of AD mice; type: in vivo, mouse; conditions: administered from 2 months of age; tested 3 and 6 months after administration
Text: One symptom of AD patients was the inability to take care of themselves, while nesting behaviors reflected the self-care level of the mice. At the beginning of the experiment, 10 pieces of rectangular paper were placed neatly in mouse cages in order. Normal mice would tear up pieces of paper and build nests, while mice with severe AD symptoms would not tear up pieces of paper and build nests.

[2] = tested on: transgenic AD mice (C57BL/6J background); assay: Light/dark box test of AD mice; type: in vivo, mouse; conditions: 6 months after administration
Text: The principle of the light/dark box test is: the mice have a natural tendency to darkness; and after the mice was put into a light box, the mice would spontaneously enter a connected dark box. However, in this experiment, the dark box was equipped with an electrical stimulation mechanism, and the mice would be shocked when they entered the dark box.

[3] = tested on: transgenic AD mice (C57BL/6J background); assay: Water maze test of AD mice; conditions: 6 months after administration
Text: • Experimental and analytical method: in this experiment, transgenic mice from APP/P Embodiment 13B were used, and background mice were C57BL/6J. […] The process of the water maze test was divided into three stages: the first stage lasted for 1 day; and in order to adapt to this stage, there was an escape platform having a diameter of 8 cm in a large pool having a diameter of 1.2 m, and there were four marks of circle, triangle, box and fork in four directions of east, west, north and south on the pool wall as hints of spatial positions. The rats were sequentially placed into transparent water along the pool wall, with the water surface 1 cm below the escape platform. The mice would easily find the escape platform, and was then rescued from the water maze after climbing onto the platform, thereby learning basic rules of the water maze. The second stage lasted for 4 days and was a training stage. The settings for the tool remained unchanged, the water surface was raised to 1 cm above the escape platform, and ink was poured to strain the water black, so that the escape platform was not visible. Every day, the mice were put into the pool from the four directions of the east, south, west and north, and rescued after successfully climbing onto the escape platform. […]

Mia paca-2 cells = assay: In-vitro killing of pancreatic cancer cells (CellTiter-Glo); type: cell-based; conditions: 11 small molecules, max 10 uM, 3-fold dilution
Procedure: • Experimental and analytical method: we used Mia paca-2 cells as a research object. This cell line was a pancreatic cancer cell line and was widely used in an antimicrobial susceptibility experiment. We performed the antimicrobial susceptibility experiment on 11 small molecules, with a maximum concentration of 10 uM and a 3-fold dilution, resulting in a concentration gradient of seven points. Cell viability assay was performed using CellTiter-Glo, and a dosage-response curve was plotted using GraphPad Prism. A resulting antimicrobial susceptibility curve was shown in the figure below. • Results: the antimicrobial susceptibility curve was shown in FIG. 53, where a lower IC50 value indicates a higher sensitivity to the small molecule.

hippocampal neurons = assay: L-cysteine-induced neuronal excitotoxicity; type: cell-based, SD rats; conditions: compound 1 μM, 24 h before inducer
Procedure: Experimental and analytical method: before the experiment, a 24-well cell culture plate was pretreated with Poly-D-lysine and placed in a cell incubator at 37° C. and 5% CO2 overnight. SD rats, 18 days pregnant, were ordered, brains of fetal rats (E18-19) were dissected, and hippocampal neurons in the brains were subjected to primary culture in a neuronal medium using a 24-well plate, and then cultured by a serum-free medium. The hippocampal neurons were cultured in a cell incubator at 37° C., 5% CO2 for 19 days (DIV19), then added with a compound to be tested (a final concentration of 1 μM) and a positive control AP5 [(2R)-amino-5-phosphonopentanoic acid(phosphonatopentanoate)] (a final concentration of 100 μM), cultured for 24 h, and then added with L-Cystine (400 μM) and NaHCO3 (10 mM). After 18 h, Hoechst3342 (2.5 μg/ml) was added for cell staining. The cells were placed in the incubator and cultured for 15 min, and photographed using the high-content fluorescence microscope, wherein 6 random non-overlapping fields were photographed for each duplicate well, and the total number of neurons and the number of dead neurons were counted with software Image J. The obtained data was used to determine whether there was a difference between a drug treatment group and a control group.
Compound treatment: 32 small molecule compounds in Embodiment 1 to Embodiment 19A were diluted with DMSO to a 1 mM mother solution; and 1 μL of mother solution was added to 1 ml of culture solution per well in a 24-well plate to a final concentration of 1 μM, wherein a positive control compound was […] of AP5 (100 mM mother solution), and a negative control was 1 μl of DMSO.

[4] = tested on: U937 (histiocytic lymphoma cells); assay: Cell proliferation assay, U937; type: cell-based; conditions: Homo sapiens, U-937, 72 h
Procedure: (§1) • Experimental and analytical method: cells were inoculated into a 96-well cell culture plate with a lid at a maximum concentration of 10 μM for a test compound, and diluted in three folds to a series of test concentrations, and cells were incubated at 37° C., 5% CO2 for 72 h. The concentration of DMSO was 0.5%, 100 μl of medium was taken from each well. 100 μl of reagent (Celltitute Glo Assay Kit) was added to each well, and a flat plate was shaken on a plate shaker (protected from light) for 2 min. A culture plate was incubated (protected from light) at room temperature for 30 min. Chemiluminescence values were recorded by a multi-plate plate reader, and the experimental results were as follows:
(§2) U937 (histiocytic lymphoma cells), OCI-LY3 (human diffuse large B-cell lymphoma cells), U2932 (human diffuse large B-cell lymphoma cells), and HT cells (human mixed lymphoma cells) were analyzed in the table for experimental analysis of cell proliferation.

[5] = tested on: OCI-LY3 (human diffuse large B-cell lymphoma cells); assay: Cell proliferation assay, OCI-LY3; type: cell-based; conditions: Homo sapiens, OCI-Ly3, 72 h
Procedure: as §1, §2

[6] = tested on: U2932 (human diffuse large B-cell lymphoma cells); assay: Cell proliferation assay, U2932; type: cell-based; conditions: U2932, 72 h
Procedure: as §1, §2

[7] = tested on: HT cells (human mixed lymphoma cells); assay: Cell proliferation assay, HT; type: cell-based; conditions: Homo sapiens, HT, 72 h
Procedure: as §1, §2

[8] = tested on: Lepr gene mutant (DB) mice; assay: Excessive urination in DB animals; type: in vivo, mouse; conditions: 80 mpk by gavage once every two days, 5 weeks; vs model group
Text: • Experimental and analytical method: leptin receptor gene (OB-R) was also known as diabetes gene (db), leptin receptor (Lepr) is closely related to obesity, hypertension, diabetes, lipid metabolism disorders, etc. The courses of these diseases are greatly influenced by the genetic background. Topical insulin can not control the increase in blood glucose and gluconeogenesis levels in the liver. Gene editing technologies and embryo injection technologies were used to construct Lepr gene mutant mice. […] The urine volume of each mouse of this strain was as huge as hundreds of times that of normal mice, so patients with frequent urination could be simulated. The experiment was divided into three groups, i.e., a model group (non-administrated, onset mice with high urine volume), a control group (non-administrated, non-onset normal mice), and an experimental group (administrated Embodiment 1A, 80 mpk, by gavage once every two days), with 2 mice in the control group, and 3 mice in the other two groups. The small molecule used was Embodiment 1A. We observed the urine volume in cages of mice housed in single cages starting from Week 8 and after 5 weeks of continuous drug treatment. […] Experiment 32. Cardiovascular Inflammation Alleviation Effect on APOE Mutant Mice Fed with High-Fat Diets.

[9] = tested on: SMPs (submitochondrial particles); assay: Catalytic activity of SMPs (NADH dehydrogenation); type: biochemical; conditions: Rotenone 2 μM, 10 min, 500 μM NADH
Procedure: Experiment 9. Detection of Small Molecule Compounds that Facilitated the Catalytic Activity of SMPs (Submitochondrial Particles) • Experimental and analytical method: HEK293 cells were cultured at 5% CO2, and purified to obtain mitocondria, which were sonicated to obtain SMPs (submitochondrial granules). SMPs were incubated with different concentrations of small molecule compounds or a control drug (Rotenone, 2 μM) for 10 min, and then added with 500 μM of NADH. The absorbance of NADH was detected by an Enspire multi-mode microplate reader, an enzyme activity curve with the decrease of NADH concentration catalyzed by SMPs was plotted, and a maximum reaction rate of SMPs was calculated by linear fitting. The addition of 1 mM FeCN to a normal NADH catalytic system of SMPs could cause an electronic pathway from NADH to coenzyme Q to be short-circuited.

CCN1CCN(C2CCN(C(=O)CC(=O)NC3CC[C@]4(C)C5CC[C@]6(C)[C@@H]7[C@H](C[C@H]6[C@@H]5CC[C@@H]4C3)O[C@]3(CC[C@H](C)CO3)[C@H]7C)CC2)CC1 (stereo partly shown) [Embodiment 25]
nesting behavior score [1]: most obvious
memory on electric shock (latency before entering the dark box) [2]: could effectively enhance the memory
dwell time in a target quadrant [3]: most obvious
number of platform shuttles [3]: most obvious

C[C@H]1CC[C@@]2(OC1)O[C@H]1C[C@H]3[C@@H]4CC[C@@H]5C[C@@H](NC(=O)CC(=O)N6CCN(C7CCN(C)CC7)CC6)CC[C@]5(C)C4CC[C@]3(C)[C@H]1[C@@H]2C (stereo partly shown) [Embodiment 26A]
sensitivity of Mia paca-2 cells (IC50 comparison) (Mia paca-2 cells): highest sensitivity

C[C@H]1CC[C@@]2(OC1)O[C@H]1C[C@H]3[C@@H]4CC[C@@H]5C[C@@H](NC(=O)CCN6CCN(C)CC6)CC[C@]5(C)[C@H]4CC[C@]3(C)[C@H]1[C@@H]2C [Embodiment 1A]
protective effects on L-Cystine (400 μM)-induced neuronal excitotoxicity (hippocampal neurons): protective effects
IC50 ([4]; low sugar, read-out: U937 (IC50, uM) Low sugar): 1.8 µM
IC50 ([4]; normal sugar, read-out: U937 (IC50, uM) Normal sugar): 2.13 µM
IC50 [5]: 1900 nM
IC50 [6]: 620 nM
IC50 [7]: 1640 nM
urine wetting area in mouse cage [8]: significantly reduced

C=C(C)[C@H]1Cc2c(ccc3c2O[C@@H]2COc4cc(OC)c(OC)cc4[C@@H]2C3=O)O1 [Rotenone]
dehydrogenation reaction of NADH by SMPs [9]: completely blocked
